Measured values: the supplement of paper PMC10627819
≈ marks a conversion by molar mass, not a printed value.

Legend:
[1] = tested on: S. aureus DSM 20231; assay: fitness (endpoint OD595 vs no drug) (fraction); higher = more growth
How it was run: (§1)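 Volumes were 30 µl per well, or 55 µl for S. pneumoniae, in 384-well plates inoculated at OD595 0.01. Media were TSB, LB Lennox or CY at 37 °C, and OD595 was read every 30 min for 14 h with first-reading background subtraction. Fitness is the ratio of optical density at stationary-phase entry to the robust mean of no-drug controls. That ratio is capped at 1.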

[2] = tested on: S. pneumoniae D39V; assay: as above
How it was run: as §1

[3] = tested on: S. aureus Newman; assay: as above
How it was run: as §1

[4] = tested on: S. aureus DSM 20231
[5] = tested on: S. pneumoniae D39V
[6] = tested on: S. aureus Newman
[7] = tested on: B. subtilis 168; assay: fitness (endpoint OD595 vs no drug) (fraction); higher = more growth
How it was run: as §1

[8] = tested on: B. subtilis 168
[9] = tested on: S. aureus DSM 20231; assay: Bliss interaction score (quartile over a dose matrix) (fitness difference); higher = more antagonism (negative = synergy)
How it was run: (§2)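 The Bliss score was calculated by subtracting the expected fitness, the product of single-drug values, from the observed fitness. OD595 at entry into stationary phase, over the plate's robust no-drug mean and capped at 1, served as the fitness readout. Single-drug values were inferred from combination data, and scores are summarised by quartiles across technical, biological and donor/recipient replicates.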

[10] = tested on: S. pneumoniae D39V; assay: as above
How it was run: as §2

[11] = tested on: S. aureus Newman; assay: as above
How it was run: as §2

[12] = tested on: B. subtilis 168; assay: as above
How it was run: as §2
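For Bliss interaction score (quartile over a dose matrix) in this document: first quartile when negative (synergy) and third quartile when positive (antagonism).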

CC1(C)S[C@@H]2[C@H](NC(=O)[C@H](N)c3ccc(O)cc3)C(=O)N2[C@H]1C(=O)O [Amoxicillin]
fitness
Settings | 0.0008 µg/mL | 0.0015 µg/mL | 0.003 µg/mL | 0.0625 µg/mL | 0.125 µg/mL | 0.25 µg/mL | 0.5 µg/mL
[1] | – | – | – | 0.606 | 0.504 | 0.0502 | 0.0082
[2] | 0.972 | 0.945 | 0.923 | – | – | – | –
[3] | – | – | – | 0.896 | 0.878 | 0.85 | 0.865

Settings | MIC [µg/mL]
[4] | 0.556 (≈ 1.52 µM)
[5] | 0.004 (≈ 0.0109 µM)
[6] | 0.25 (≈ 0.684 µM)

CO/N=C(\C(=O)N[C@@H]1C(=O)N2C(C(=O)[O-])=C(C[N+]3(C)CCCC3)CS[C@H]12)c1csc(N)n1 [Cefepime]
Settings | fitness
[1], 0.125 µg/mL | ≥ 1
[1], 0.25 µg/mL | 0.996
[1], 0.5 µg/mL | 0.935
[2], 0.0078 µg/mL | ≥ 1
[2], 0.0155 µg/mL | 0.993
[2], 0.031 µg/mL | 0.696
[3], 0.125 µg/mL | 0.924
[3], 0.25 µg/mL | 0.872
[3], 0.5 µg/mL | 0.784
[7], 0.0625 µg/mL | 0.872
[7], 0.125 µg/mL | 0.729
[7], 0.25 µg/mL | 0.432

Settings | MIC [µg/mL]
[4] | 0.556 (≈ 1.16 µM)
[5] | 0.031 (≈ 0.0645 µM)
[6] | 0.556 (≈ 1.16 µM)
[8] | 0.25 (≈ 0.52 µM)

CCCCCCCCCC(=O)N[C@@H](Cc1c[nH]c2ccccc12)C(=O)N[C@H](CC(N)=O)C(=O)N[C@@H](CC(=O)O)C(=O)N[C@@H]1C(=O)NCC(=O)N[C@@H](CCCN)C(=O)N[C@@H](CC(=O)O)C(=O)N[C@H](C)C(=O)N[C@@H](CC(=O)O)C(=O)NCC(=O)N[C@H](CO)C(=O)N[C@@H]([C@H](C)CC(=O)O)C(=O)N[C@@H](CC(=O)c2ccccc2N)C(=O)O[C@@H]1C [Daptomycin]
fitness
Settings | 0.125 µg/mL | 0.25 µg/mL | 0.5 µg/mL | 1 µg/mL | 2 µg/mL | 4 µg/mL
[1] | 0.998 | 0.989 | ≥ 1 | ≥ 1 | ≥ 1 | –
[2] | – | – | – | 0.875 | 0.889 | 0.853
[3] | 0.954 | 0.964 | 0.964 | 0.98 | ≥ 1 | –
[7] | 0.941 | 0.944 | 0.934 | – | – | –

Settings | MIC [µg/mL]
[4] | 2 (≈ 1.23 µM)
[5] | 8 (≈ 4.94 µM)
[6] | 1 (≈ 0.617 µM)
[8] | 0.5 (≈ 0.309 µM)

CCCCCCCCCC(=O)N[C@@H](Cc1c[nH]c2ccccc12)C(=O)N[C@H](CC(N)=O)C(=O)N[C@@H](CC(=O)O)C(=O)N[C@@H]1C(=O)NCC(=O)N[C@@H](CCCN)C(=O)N[C@@H](CC(=O)O)C(=O)N[C@H](C)C(=O)N[C@@H](CC(=O)O)C(=O)NCC(=O)N[C@H](CO)C(=O)N[C@@H]([C@H](C)CC(=O)O)C(=O)N[C@@H](CC(=O)c2ccccc2N)C(=O)O[C@@H]1C [Daptomycin] + Cc1onc(-c2ccccc2)c1C(=O)N[C@@H]1C(=O)N2[C@@H]1SC(C)(C)[C@@H]2C(=O)O [Oxacillin]
fitness, one replicate
Settings | first compound 0.125 µg/mL | first compound 0.25 µg/mL | first compound 0.5 µg/mL | first compound 1 µg/mL
[1], partner 0.0156 µg/mL | 0.728 | 0.737 | – | –
[1], partner 0.0312 µg/mL | 0.677 | 0.722 | – | –
[1], partner 0.0625 µg/mL | 0.531 | 0.515 | – | –
[7], partner 0.0078 µg/mL | – | 0.878 | 0.894 | 0.662
[7], partner 0.0155 µg/mL | – | 0.975 | 0.87 | 0.657
[7], partner 0.031 µg/mL | – | 0.888 | 0.832 | 0.302
[7], partner 0.075 µg/mL | 0.618 | 0.686 | 0.395 | –
[7], partner 0.15 µg/mL | 0.0439 | 0.032 | 0.0273 | –
[7], partner 0.3 µg/mL | 0.0398 | 0.0692 | 0.0429 | –

fitness
Settings | first compound 0.125 µg/mL | first compound 0.25 µg/mL | first compound 0.5 µg/mL | first compound 1 µg/mL | first compound 2 µg/mL | first compound 4 µg/mL
[1], partner 0.0156 µg/mL | – | – | 0.864 | 0.889 | 0.794 | –
[1], partner 0.0312 µg/mL | – | – | 0.768 | 0.716 | 0.721 | –
[1], partner 0.0625 µg/mL | – | – | 0.502 | 0.501 | 0.537 | –
[2], partner 0.005 µg/mL | – | – | – | ≥ 1 | 0.999 | 0.949
[2], partner 0.01 µg/mL | – | – | – | 0.951 | 0.97 | 0.956
[2], partner 0.02 µg/mL | – | – | – | 0.904 | 0.908 | 0.895
[2], partner 0.04 µg/mL | – | – | – | 0.377 | 0.382 | 0.505
[3], partner 0.0156 µg/mL | 0.863 | 0.82 | 0.785 | – | – | –
[3], partner 0.0312 µg/mL | 0.752 | 0.751 | 0.768 | – | – | –
[3], partner 0.0625 µg/mL | 0.656 | 0.664 | 0.674 | – | – | –
[7], partner 0.002 µg/mL | 0.979 | 0.99 | 0.938 | – | – | –
[7], partner 0.004 µg/mL | 0.996 | 0.959 | 0.877 | – | – | –
[7], partner 0.008 µg/mL | 0.899 | 0.921 | 0.856 | – | – | –

Settings | Bliss interaction score
[9] | -0.0408
[10] | 0.0877
[11] | 0.0785
[12] | 0.0697
